Measurements as given in patent publication US20250375417A1, “OREXIN RECEPTOR 2 (OX2R) AGONIST FOR USE IN NARCOLEPSY TYPE 1 (NT1)” (TAKEDA PHARMACEUTICAL COMPANY LIMITED, priority 2024, published 2025).

Key:
participants with NT1 [1] = test: Maintenance of Wakefulness Test (MWT) sleep onset latency, Phase 2 NT1 trial (Example 1); type: in vivo, human
Method: In some aspects of the methods described herein, the subject experiences a higher mean sleep latency (also referred to as sleep onset latency or SOL) from the Maintenance of Wakefulness Test (MWT) after a treatment period compared to an untreated subject. The MWT is a validated, objective measure that evaluates a person's ability to remain awake under soporific conditions for a defined period of time. Because there is no biological measure of wakefulness, wakefulness is measured indirectly by the inability or delayed tendency to fall asleep. This tendency to fall asleep is measured via electroencephalography-derived sleep latency in the MWT. One MWT, that includes four 40-minute wake trials, is done on each day specified in the Schedule of Activities of the trial. Sleep latency in each wake trial is recorded. Participants are required to stay awake in between the 4 MWT wake trials.
During each MWT wake trial, participants are instructed to sit in a bed or reclining chair and remain awake for as long as possible in a dimly lit room. Wake trials are ended after 40 minutes if no sleep occurs. If no sleep has been observed according to these rules, then the latency is defined as 40 minutes.
Randomization was stratified by region. Starting on the morning of Day 1, the study drug was administered at approximately the same time each day for 8 or 12 weeks. If the participant wished to enroll in the long-term extension (LTE) study described in Example 3 but the LTE study had not started at the participant's site when the participant completed the Week 8 visit of the current study, the participant was allowed to continue in the current study for an additional 4 weeks.
The following doses were studied: • Compound A Dose Regimen 1:0.5 mg twice daily approximately 3 hours apart. • Compound A Dose Regimen 2:2 mg twice daily approximately 3 hours apart. • Compound A Dose Regimen 3:2 mg followed by 5 mg approximately 3 hours apart. • Compound A Dose Regimen 4:7 mg once daily (QD). • Other products required for the study: Matching placebo.
Dose regimens included once daily (QD) or twice daily (approximately 3 hours apart) dosing. Study treatment was administered at approximately 8 AM and 11 AM. (Participants assigned to a QD dose regimen received placebo for the second dose. Participants assigned to placebo received placebo for both doses).
Endpoints included change from baseline to Week 8 in mean sleep onset latency on the Maintenance of Wakefulness Test (SOL-MWT; primary endpoint), ESS total score, weekly cataplexy rate (WCR), and occurrence of treatment-emergent adverse events (TEAEs).

participants with NT1 [2] = test: Efficacy (SOL-MWT, ESS, WCR), LTE study interim analysis, NT1 participants; type: in vivo, human; conditions: all Compound A doses, up to 6 months (FIG. 31)
Method: An nPSG and MWT were conducted on Day 181 and 182, respectively. Cognitive testing were conducted at Week 26 (6 months). ESS and NSS-CT were collected monthly starting at Week 4 and then approximately every 3 months after Week 12. There were additional ESS measurements at Week 2 and in the first week after drug discontinuation. PGI-I and CGI-I were collected approximately every 3 months starting at Week 12. Other patient-reported outcome measures were administered approximately every 6 months up until Year 1.
Participants with NT1 also completed the Cataplexy e-diary daily over 2-week periods to capture the weekly cataplexy rate before the next visit in-clinic. The Cataplexy e-diary was completed at approximately 3-month intervals during Year 1 and at 6-month intervals during Year 2.
Participants completing either Example 1 or Example 2 with ≤3 months between parent study-end and LTE screening could enroll. Primary endpoint is the occurrence of treatment-emergent adverse events (TEAEs); secondary endpoints are change from baseline (parent study) in sleep onset latency on the Maintenance of Wakefulness Test (SOL-MWT), Epworth Sleepiness Scale (ESS) score, and weekly cataplexy rate (WCR). Participants with NT1 receive oral Compound A 0.5 mg twice 3 hours apart, 2 mg twice 3 hours apart, 2 mg then 5 mg 3 hours apart, or 7 mg once daily. […]

CCS(=O)(=O)N[C@@H]1[C@H](Cc2cccc(-c3cc(F)cc(F)c3)c2F)N(C(=O)C(C)(C)O)CC1(F)F [Compound A, N-{(2S,3R)-4,4-difluoro-1-(2-hydroxy-2-methylpropanoyl)-2-[(2,3′,5′-trifluoro[1,1′-biphenyl]-3-yl)methyl]pyrrolidin-3-yl}ethanesulfonamide]
LS mean (SE) change from baseline to Week 8 in SOL-MWT (participants with NT1 [1]; 0.5 mg/0.5 mg): 12.49 (2.13) minutes
LS mean (SE) change from baseline to Week 8 in SOL-MWT (participants with NT1 [1]; 2 mg/2 mg): 23.50 (2.04) minutes
LS mean (SE) change from baseline to Week 8 in SOL-MWT (participants with NT1 [1]; 2 mg/5 mg): 25.42 (2.07) minutes
LS mean (SE) change from baseline to Week 8 in SOL-MWT (participants with NT1 [1]; 7 mg): 14.96 (1.95) minutes
Efficacy on SOL-MWT, ESS and WCR over time (participants with NT1 [2]): maintenance of efficacy
